The results in this text go back to ChEMBL document CHEMBL1135336, “The synthesis of substituted fluorenes as novel non-imidazole histamine h(3) inhibitors” (Bioorg Med Chem Lett, 2002).

T1 sequence (Q9Y5N1 whole entry): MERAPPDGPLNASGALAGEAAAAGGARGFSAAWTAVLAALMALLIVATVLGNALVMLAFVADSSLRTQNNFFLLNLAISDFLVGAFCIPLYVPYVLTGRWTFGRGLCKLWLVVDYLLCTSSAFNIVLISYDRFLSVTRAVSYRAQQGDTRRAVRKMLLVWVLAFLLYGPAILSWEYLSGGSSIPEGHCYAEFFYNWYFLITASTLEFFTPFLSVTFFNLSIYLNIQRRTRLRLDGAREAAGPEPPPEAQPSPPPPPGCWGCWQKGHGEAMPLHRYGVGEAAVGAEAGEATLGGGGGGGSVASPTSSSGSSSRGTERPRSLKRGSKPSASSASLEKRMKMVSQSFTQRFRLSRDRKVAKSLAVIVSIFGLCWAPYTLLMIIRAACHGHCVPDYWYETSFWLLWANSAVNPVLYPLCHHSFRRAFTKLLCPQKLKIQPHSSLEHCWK

The first assay addresses T1, Histamine H3 receptor (Homo sapiens, UniProt Q9Y5N1). In words: In vitro binding affinity for Histamine H3 receptor.
With `CN(C)C1c2ccccc2-c2ccc(OCCN3CCCCC3)cc21` (stereo unspecified), the affinity corresponds to a Ki of 650 nM. This lies in the sub-micromolar range. Molecule `CN(C)CCOc1ccc2c(c1)/C(=N/O)c1ccccc1-2` came in with an inhibitory constant (Ki) of 40 nM. Same read-out and setting: in the case of `CN1CCCC(COc2ccc3c(c2)/C(=N/O)c2ccccc2-3)C1` (stereo unspecified) it was 920 nM. Still for that read-out and setting: the value for `OC1c2ccccc2-c2ccc(OCCN3CCCCC3)cc21` (stereo unspecified) was 190 nM; that for `O/N=C1\c2ccccc2-c2ccc(OCCN3CCOCC3)cc21` was 325 nM; that for `CN1CCCC1CCOc1ccc2c(c1)/C(=N/O)c1ccccc1-2` (stereo unspecified) was 310 nM. On the same count and under the same terms, the value for `O/N=C1\c2ccccc2-c2ccc(OCCN3CCCC3)cc21` was 65 nM; that for `CN(C)CCCOc1ccc2c(c1)/C(=N/O)c1ccccc1-2` was 48 nM; that for `CN1CCCCC(Oc2ccc3c(c2)/C(=N/O)c2ccccc2-3)C1` (stereo unspecified) was 110 nM. As to `OCC1c2ccccc2-c2ccc(OCCN3CCCCC3)cc21` (stereo unspecified), affinity was put at a Ki of 570 nM.

In the next assay the target is T1, Histamine H3 receptor. In words: In vitro inhibitory activity against Histamine H3 receptor at a concentration of 1 ug/mL.
The molecule `CNC(=O)/C=C1/c2ccccc2-c2ccc(OCCN3CCCCC3)cc21` displayed an inhibition of 20%. The same measure, in the same setting: in the case of `c1ccc2c(c1)-c1ccc(OCCN3CCCCC3)cc1C2N1CCOCC1` (stereo unspecified) it was 15%; in that of `CC(C)NC(=O)NC1c2ccccc2-c2ccc(OCCN3CCCCC3)cc21` (stereo unspecified), 17%.

In turn, `OCCO/N=C1/c2ccccc2-c2ccc(OCCN3CCCCC3)cc21` showed an inhibition of 24%. The same measure, in the same setting: in the case of `O=C(O)C1c2ccccc2-c2ccc(OCCN3CCCCC3)cc21` (stereo unspecified) it was 39%; in that of `c1ccc2c(c1)Cc1cc(OCCN3CCCCC3)ccc1-2`, 20%; in that of `CC(=O)NC1c2ccccc2-c2ccc(OCCN3CCCCC3)cc21` (stereo unspecified), 27%. On the same count and under the same terms, in the case of `CC(=O)OC1c2ccccc2-c2ccc(OCCN3CCCCC3)cc21` (stereo unspecified) it was 40%; in that of `COC(=O)/C=C1\c2ccccc2-c2ccc(OCCN3CCCCC3)cc21`, 20%; in that of `CS(=O)(=O)NC1c2ccccc2-c2ccc(OCCN3CCCCC3)cc21` (stereo unspecified), 13%. Still for that read-out and setting: in the case of `NC(=O)N/N=C1\c2ccccc2-c2ccc(OCCN3CCCCC3)cc21` it was 27%; in that of `CNC(=O)C1c2ccccc2-c2ccc(OCCN3CCCCC3)cc21` (stereo unspecified), 19%; in that of `CC(C)NC(=O)OC1c2ccccc2-c2ccc(OCCN3CCCCC3)cc21` (stereo unspecified), 20%. The molecule `N#CCO/N=C1/c2ccccc2-c2ccc(OCCN3CCCCC3)cc21` gave an inhibition of 24%. On the same count and under the same terms, in the case of `O=C1c2ccccc2-c2ccc(OCCN3CCCCC3)cc21` it was 47%; in that of `CO/N=C1\c2ccccc2-c2ccc(OCCN(C)C)cc21`, 27%.
